The values below come from US20230295119A1, “SUBSTITUTED PYRIDINES FOR THE TREATMENT OF INFLAMMATORY DISEASES” (GOSSAMER BIO SERVICES, INC., priority 2020, published 2023).

In general, IC50 refers to the concentration at which inhibition is half-maximal.

One test concerns the target TYK2 JH2 domain (Homo sapiens (Human), UniProt P29597). The test can be described thus: TYK2 JH2 NanoBRET assay. In kind it is binding. Here is the method:
HEK293T cells were transfected with NanoLuc-TYK2 JH2 Fusion Vector (Promega, customized) using Trans-IT reagent (Mirus, #MIR2700) and incubated for overnight in 37° C. incubator. […] Add 85 µL of cell suspension into white, polypropylene, 96-well plates (Corning, #3600). 90 µL of cells were used for no tracer control samples. 5 µL of diluted NanoBRET K10 tracer (Promega, #CS1810C122) were added to cells to a final concentration of 0.5 µM. Test compounds were diluted into DMSO, and then phenol-free opti-MEM to 10X of final concentration. 10 µL of diluted compounds were added into each well. The cells were incubated with test compound and tracer for 2 hours. 3XNanoBRET® Nano-Glo® Substrate and Extracellular NanoLuc® Inhibitor mixture were prepared and 50 µL of the mixture were added into the wells and mixed. […] NanoBRET signal was determined by using the ratio of acceptor signal and donor signal.
A general note: BRET reads energy transfer from a luciferase to a nearby fluorophore.

In another test the target is human JAK1 (Homo sapiens (Human), UniProt P23458). In words: JAK1 TR-FRET kinase assay. The note with it: TR-FRET, JAK1 2.5 nM. The format is biochemical.
The target in a further test is human JAK3 (Homo sapiens (Human), UniProt P52333). The test can be described thus: JAK3 TR-FRET kinase assay. The following applies: JAK3 0.0125 nM. In kind it is biochemical.
In the next test the target is human JAK2 (Homo sapiens (Human), UniProt O60674). In words: JAK2 TR-FRET kinase assay. In kind it is biochemical. The following applies: JAK2 0.025 nM. (In general: In TR-FRET formats the signal depends on donor and acceptor labels being close together.)
[1] abbreviates: HEK293T cells, Table 19, read-out: IC50 (nM), TYK2 activity.

Like-named read-outs stand apart in the source and are kept apart here.

Chain of human JAK1 (P23458 whole entry): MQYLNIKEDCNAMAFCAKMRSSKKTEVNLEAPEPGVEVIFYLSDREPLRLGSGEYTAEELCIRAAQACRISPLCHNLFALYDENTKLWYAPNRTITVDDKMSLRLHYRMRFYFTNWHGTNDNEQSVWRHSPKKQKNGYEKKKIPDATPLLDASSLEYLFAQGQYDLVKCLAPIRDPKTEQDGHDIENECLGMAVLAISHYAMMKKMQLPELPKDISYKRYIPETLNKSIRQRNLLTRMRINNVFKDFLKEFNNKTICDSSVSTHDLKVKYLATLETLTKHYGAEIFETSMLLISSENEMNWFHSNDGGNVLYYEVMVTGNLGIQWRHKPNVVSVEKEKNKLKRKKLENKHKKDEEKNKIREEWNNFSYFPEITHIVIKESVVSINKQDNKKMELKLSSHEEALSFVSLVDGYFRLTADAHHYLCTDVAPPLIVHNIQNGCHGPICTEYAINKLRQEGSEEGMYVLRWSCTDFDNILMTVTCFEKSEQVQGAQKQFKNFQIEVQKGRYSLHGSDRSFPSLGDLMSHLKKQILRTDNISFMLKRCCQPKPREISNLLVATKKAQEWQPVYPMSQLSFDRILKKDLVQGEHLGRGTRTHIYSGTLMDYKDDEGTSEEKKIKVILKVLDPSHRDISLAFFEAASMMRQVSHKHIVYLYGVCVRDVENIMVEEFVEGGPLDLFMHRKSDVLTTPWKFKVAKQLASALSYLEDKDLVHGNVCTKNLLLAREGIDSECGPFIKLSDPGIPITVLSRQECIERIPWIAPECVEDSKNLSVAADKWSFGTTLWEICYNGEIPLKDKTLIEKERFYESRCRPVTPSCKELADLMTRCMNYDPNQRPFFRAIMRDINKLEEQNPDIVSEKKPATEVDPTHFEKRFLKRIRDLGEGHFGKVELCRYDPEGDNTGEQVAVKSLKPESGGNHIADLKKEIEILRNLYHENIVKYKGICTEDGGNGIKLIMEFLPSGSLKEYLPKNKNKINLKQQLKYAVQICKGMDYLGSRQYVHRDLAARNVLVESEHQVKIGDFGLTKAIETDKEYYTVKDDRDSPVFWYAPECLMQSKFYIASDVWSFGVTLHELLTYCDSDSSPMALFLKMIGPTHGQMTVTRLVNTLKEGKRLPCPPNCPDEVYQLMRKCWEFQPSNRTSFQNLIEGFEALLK
Chain of TYK2 JH2 domain (P29597 589-875): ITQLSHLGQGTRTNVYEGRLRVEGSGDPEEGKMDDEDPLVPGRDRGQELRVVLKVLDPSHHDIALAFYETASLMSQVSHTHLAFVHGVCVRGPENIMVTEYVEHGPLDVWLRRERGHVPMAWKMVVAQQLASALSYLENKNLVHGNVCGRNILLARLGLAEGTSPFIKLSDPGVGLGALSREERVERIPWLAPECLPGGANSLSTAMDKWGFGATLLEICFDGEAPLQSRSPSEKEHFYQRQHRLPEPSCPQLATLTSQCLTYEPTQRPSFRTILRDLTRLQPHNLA
Chain of human JAK3 (P52333 whole entry): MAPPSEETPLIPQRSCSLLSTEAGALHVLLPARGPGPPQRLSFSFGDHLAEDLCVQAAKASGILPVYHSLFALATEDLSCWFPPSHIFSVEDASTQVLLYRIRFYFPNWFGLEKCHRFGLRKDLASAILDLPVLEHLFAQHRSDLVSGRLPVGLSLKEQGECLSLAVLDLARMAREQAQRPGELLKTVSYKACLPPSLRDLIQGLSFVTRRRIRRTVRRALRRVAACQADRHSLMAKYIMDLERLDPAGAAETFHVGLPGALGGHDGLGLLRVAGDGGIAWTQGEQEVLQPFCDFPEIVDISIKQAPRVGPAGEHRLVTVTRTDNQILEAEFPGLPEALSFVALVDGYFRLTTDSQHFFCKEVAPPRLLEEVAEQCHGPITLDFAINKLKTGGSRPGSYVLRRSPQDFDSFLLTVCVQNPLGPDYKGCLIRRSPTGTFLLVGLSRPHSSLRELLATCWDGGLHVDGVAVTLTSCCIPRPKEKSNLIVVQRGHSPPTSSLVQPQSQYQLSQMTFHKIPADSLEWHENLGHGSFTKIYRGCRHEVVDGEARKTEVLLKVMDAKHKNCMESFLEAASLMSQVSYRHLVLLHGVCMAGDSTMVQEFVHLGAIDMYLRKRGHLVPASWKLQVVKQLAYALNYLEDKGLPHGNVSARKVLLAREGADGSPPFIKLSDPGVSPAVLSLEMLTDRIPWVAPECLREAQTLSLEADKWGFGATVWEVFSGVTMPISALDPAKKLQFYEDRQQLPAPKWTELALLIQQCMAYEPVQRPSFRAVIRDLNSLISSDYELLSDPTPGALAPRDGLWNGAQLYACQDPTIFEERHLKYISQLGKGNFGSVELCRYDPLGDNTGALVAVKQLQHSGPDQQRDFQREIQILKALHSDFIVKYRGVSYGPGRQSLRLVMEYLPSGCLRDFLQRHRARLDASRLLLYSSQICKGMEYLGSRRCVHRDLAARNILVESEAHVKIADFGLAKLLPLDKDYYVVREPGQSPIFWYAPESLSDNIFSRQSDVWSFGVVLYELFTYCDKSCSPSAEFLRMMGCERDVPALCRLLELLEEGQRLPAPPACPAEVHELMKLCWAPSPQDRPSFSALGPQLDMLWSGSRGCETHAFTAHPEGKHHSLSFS
Chain of human JAK2 (O60674 whole entry): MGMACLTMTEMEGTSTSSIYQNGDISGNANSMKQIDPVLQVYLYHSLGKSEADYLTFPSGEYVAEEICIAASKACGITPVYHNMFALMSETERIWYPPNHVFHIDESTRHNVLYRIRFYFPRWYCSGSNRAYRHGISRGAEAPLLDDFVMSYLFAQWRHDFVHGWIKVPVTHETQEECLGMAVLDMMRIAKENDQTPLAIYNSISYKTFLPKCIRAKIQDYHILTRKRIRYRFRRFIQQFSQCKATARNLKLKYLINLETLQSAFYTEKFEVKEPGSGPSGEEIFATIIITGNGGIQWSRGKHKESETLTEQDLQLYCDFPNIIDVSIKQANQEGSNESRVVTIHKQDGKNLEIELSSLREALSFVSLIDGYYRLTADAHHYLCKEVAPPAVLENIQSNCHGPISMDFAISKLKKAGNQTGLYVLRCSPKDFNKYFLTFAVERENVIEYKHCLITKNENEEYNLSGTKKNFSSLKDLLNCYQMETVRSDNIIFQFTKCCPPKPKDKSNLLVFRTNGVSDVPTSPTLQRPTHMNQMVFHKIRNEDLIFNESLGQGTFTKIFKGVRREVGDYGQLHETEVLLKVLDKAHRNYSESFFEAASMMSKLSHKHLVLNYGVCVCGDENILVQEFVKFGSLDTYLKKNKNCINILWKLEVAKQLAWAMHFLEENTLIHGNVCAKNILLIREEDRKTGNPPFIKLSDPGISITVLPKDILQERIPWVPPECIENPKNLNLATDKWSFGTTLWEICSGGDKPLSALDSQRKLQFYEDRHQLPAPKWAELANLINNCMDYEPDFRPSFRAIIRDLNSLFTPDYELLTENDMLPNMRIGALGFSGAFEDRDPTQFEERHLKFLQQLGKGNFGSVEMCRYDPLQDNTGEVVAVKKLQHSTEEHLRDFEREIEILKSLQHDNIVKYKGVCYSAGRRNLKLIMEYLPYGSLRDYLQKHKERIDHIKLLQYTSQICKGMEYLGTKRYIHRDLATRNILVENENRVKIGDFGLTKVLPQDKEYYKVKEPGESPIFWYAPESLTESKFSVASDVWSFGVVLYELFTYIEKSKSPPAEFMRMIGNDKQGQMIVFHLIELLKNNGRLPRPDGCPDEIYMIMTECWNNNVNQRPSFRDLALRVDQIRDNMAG

For `COc1c(Nc2cc(NC(=O)C3CC3)ncc2C(C)=O)cccc1-c1ncn(C)n1` [Compound 1A, N-(5-acetyl-4-((2-methoxy-3-(1-methyl-1H-1,2,4-triazol-3-yl)phenyl)amino)pyridin-2-yl)cyclopropanecarboxamide], the IC50 on TYK2 JH2 domain (setting [1]) is below 5 nM.

Consider `COc1c(Nc2cc(NC(=O)OC(C)(C)C)ncc2C(C)=O)cccc1-c1ncn(C)n1` [Compound 1D], for which the IC50 at TYK2 JH2 domain (setting [1]) was in the range of 50 to 500 nM.

Consider `COc1c(Nc2cc(NC(C)=O)ncc2C(C)=O)cccc1-c1ncn(C)n1` [Compound 1G], for which the concentration for half-maximal inhibition (IC50) at TYK2 JH2 domain (setting [1]) is 5 to 50 nM.

`CCC(=O)Nc1cc(Nc2cccc(-c3ncn(C)n3)c2OC)c(C(C)=O)cn1` [Compound 1H]: the IC50 at TYK2 JH2 domain (setting [1]) was in the range of 5 to 50 nM.

Turning to `CCCC(=O)Nc1cc(Nc2cccc(-c3ncn(C)n3)c2OC)c(C(C)=O)cn1` [Compound 1I], on TYK2 JH2 domain (setting [1]), the IC50 is below 5 nM.

For the compound `COc1c(Nc2cc(NC(=O)C3CCC3)ncc2C(C)=O)cccc1-c1ncn(C)n1` [Compound 1J], the IC50 on TYK2 JH2 domain (setting [1]) was 5 to 50 nM.

For the compound `COc1c(Nc2cc(NC(=O)[C@@H]3C[C@@H]3F)ncc2C(C)=O)cccc1-c1ncn(C)n1` [Compound 1K], at TYK2 JH2 domain (setting [1]), the IC50 is below 5 nM.

In the case of `COc1c(Nc2cc(NC(=O)[C@H]3C[C@H]3F)ncc2C(C)=O)cccc1-c1ncn(C)n1` [Compound 1L], the IC50 at TYK2 JH2 domain (setting [1]) lay in the range of 5 to 50 nM.

`COc1c(Nc2cc(NC(=O)CN(C)C)ncc2C(C)=O)cccc1-c1ncn(C)n1` [Compound 1M]: the IC50 on TYK2 JH2 domain (setting [1]) lay within 50 to 500 nM.

As for `COC(=O)Nc1cc(Nc2cccc(-c3ncn(C)n3)c2OC)c(C(C)=O)cn1` [Compound 1N], the IC50 at TYK2 JH2 domain (setting [1]) fell in the range of 50 to 500 nM.

Take `COc1c(Nc2cc(NC(=O)CN3CCOCC3)ncc2C(C)=O)cccc1-c1ncn(C)n1` [Compound 1O]: the IC50 at TYK2 JH2 domain (setting [1]) lay within 50 to 500 nM.

For the compound `COc1c(Nc2cc(NC(=O)N(C)C)ncc2C(C)=O)cccc1-c1ncn(C)n1` [Compound 1P], the IC50 on TYK2 JH2 domain (setting [1]) is 50 to 500 nM.

With `COc1c(Nc2cc(N)ncc2C(C)=O)cccc1-c1ncn(C)n1` [Compound 2, 1-(6-amino-4-((2-methoxy-3-(1-methyl-1H-1,2,4-triazol-3-yl)phenyl)amino)pyridin-3-yl)ethan-1-one], the IC50 at TYK2 JH2 domain (setting [1]) is at least 500 nM.

For `COC(=O)c1cnc(NC(=O)C2CC2)cc1Nc1cccc(-c2ncn(C)n2)c1OC` [Compound 3, methyl 6-(cyclopropanecarboxamido)-4-((2-methoxy-3-(1-methyl-1H-1,2,4-triazol-3-yl)phenyl)amino)nicotinate], the IC50 on TYK2 JH2 domain (setting [1]) is below 5 nM.

In the case of `COc1c(Nc2cc(Nc3ccc(F)cc3)ncc2C(C)=O)cccc1-c1ncn(C)n1` [Compound 7B], at TYK2 JH2 domain (setting [1]), the IC50 is at least 500 nM.

`COc1c(Nc2cc(Nc3ccccn3)ncc2C(C)=O)cccc1-c1ncn(C)n1` [Compound 7C]: the IC50 on TYK2 JH2 domain (setting [1]) was below 5 nM.

For the compound `COc1c(Nc2cc(Nc3cc(C)ccn3)ncc2C(C)=O)cccc1-c1ncn(C)n1` [Compound 7D], the IC50 on TYK2 JH2 domain (setting [1]) is below 5 nM.

In the case of `COc1ccnc(Nc2cc(Nc3cccc(-c4ncn(C)n4)c3OC)c(C(C)=O)cn2)c1` [Compound 7E], the IC50 at TYK2 JH2 domain (setting [1]) is below 5 nM.

Take `COc1c(Nc2cc(Nc3cc(C#N)ccn3)ncc2C(C)=O)cccc1-c1ncn(C)n1` [Compound 7F]: the IC50 on TYK2 JH2 domain (setting [1]) was below 5 nM.

Regarding `COc1c(Nc2cc(Nc3ncccc3F)ncc2C(C)=O)cccc1-c1ncn(C)n1` [Compound 7G], the IC50 on TYK2 JH2 domain (setting [1]) is 5 to 50 nM.

In the case of `COc1c(Nc2cc(Nc3ccc(F)cn3)ncc2C(C)=O)cccc1-c1ncn(C)n1` [Compound 7H], on TYK2 JH2 domain (setting [1]), the IC50 is below 5 nM.

In the case of `COc1ccc(Nc2cc(Nc3cccc(-c4ncn(C)n4)c3OC)c(C(C)=O)cn2)nc1` [Compound 7I], the IC50 on TYK2 JH2 domain (setting [1]) was below 5 nM.

Take `COc1c(Nc2cc(Nc3cccc(C)n3)ncc2C(C)=O)cccc1-c1ncn(C)n1` [Compound 7J]: on TYK2 JH2 domain (setting [1]), the half-maximal inhibitory concentration (IC50) is below 5 nM.

Take `COc1cccc(Nc2cc(Nc3cccc(-c4ncn(C)n4)c3OC)c(C(C)=O)cn2)n1` [Compound 7K]: the IC50 at TYK2 JH2 domain (setting [1]) is below 5 nM.

As to `COc1c(Nc2cc(Nc3cc(C)c(F)cn3)ncc2C(C)=O)cccc1-c1ncn(C)n1` [Compound 7L], at TYK2 JH2 domain (setting [1]), the IC50 is below 5 nM.

For the compound `COc1c(Nc2cc(Nc3cc(C)c(Cl)cn3)ncc2C(C)=O)cccc1-c1ncn(C)n1` [Compound 7M], on TYK2 JH2 domain (setting [1]), the IC50 was below 5 nM.

With `COc1c(Nc2cc(Nc3ccc(N4CCOCC4)cn3)ncc2C(C)=O)cccc1-c1ncn(C)n1` [Compound 7N], at TYK2 JH2 domain (setting [1]), the IC50 was below 5 nM.

For `COc1c(Nc2cc(Nc3ncccn3)ncc2C(C)=O)cccc1-c1ncn(C)n1` [Compound 7O], the IC50 on TYK2 JH2 domain (setting [1]) was 50 to 500 nM.

As for `COc1c(Nc2cc(Nc3ncc(F)cn3)ncc2C(C)=O)cccc1-c1ncn(C)n1` [Compound 7P], the IC50 on TYK2 JH2 domain (setting [1]) was in the range of 50 to 500 nM.

For the compound `COc1c(Nc2cc(Nc3cc(C)ncn3)ncc2C(C)=O)cccc1-c1ncn(C)n1` [Compound 7Q], the IC50 on TYK2 JH2 domain (setting [1]) is below 5 nM.

`COc1c(Nc2cc(Nc3ccnc(C)n3)ncc2C(C)=O)cccc1-c1ncn(C)n1` [Compound 7R]: the IC50 on TYK2 JH2 domain (setting [1]) was below 5 nM.

Turning to `CCOc1ccc(Nc2cc(Nc3cccc(-c4ncn(C)n4)c3OC)c(C(C)=O)cn2)nn1` [Compound 7S], the IC50 on TYK2 JH2 domain (setting [1]) was below 5 nM.

Regarding `COc1c(Nc2cc(Nc3cnn(C)c3)ncc2C(C)=O)cccc1-c1ncn(C)n1` [Compound 7T], the IC50 on TYK2 JH2 domain (setting [1]) was in the range of 50 to 500 nM.

With `COc1c(Nc2cc(Nc3ccn(C)n3)ncc2C(C)=O)cccc1-c1ncn(C)n1` [Compound 7U], the IC50 on TYK2 JH2 domain (setting [1]) is below 5 nM.

On to `CCC(=O)c1cnc(Nc2ccc(C(N)=O)cn2)cc1Nc1cccc(-c2ncn(C)n2)c1OC` [Compound 8A, 6-((4-((2-methoxy-3-(1-methyl-1H-1,2,4-triazol-3-yl)phenyl)amino)-5-propionylpyridin-2-yl)amino)nicotinamide], for which the IC50 was at least 500 nM against human JAK1; 50 to 500 nM against human JAK3; below 5 nM at TYK2 JH2 domain (Table 20, read-out: TYK2 IC50); 50 to 500 nM at human JAK2.

On to `CCC(=O)c1cnc(Nc2ccc(C(=O)O)cn2)cc1Nc1cccc(-c2ncn(C)n2)c1OC` [Compound 8B], for which the IC50 is at least 500 nM on human JAK1; at least 500 nM against human JAK3; 50 to 500 nM at TYK2 JH2 domain (Table 20, read-out: TYK2 IC50); at least 500 nM on human JAK2.

`CCC(=O)c1cnc(Nc2ccc(C(=O)NC)cn2)cc1Nc1cccc(-c2ncn(C)n2)c1OC` [Compound 8C]: the IC50 against human JAK1 was at least 500 nM; against human JAK3 it was at least 500 nM; on TYK2 JH2 domain (Table 20, read-out: TYK2 IC50), below 5 nM; against human JAK2, at least 500 nM.

For `CCC(=O)c1cnc(Nc2cc(C(C)NC)ncn2)cc1Nc1cccc(-c2ncn(C)n2)c1OC` (stereo not drawn) [Compound 9PPPP], the IC50 on human JAK2 fell in the range of 50 to 500 nM.

As to `CCC(=O)c1cnc(Nc2ccc(CN3CCN(C)CC3)nn2)cc1Nc1cccc(-c2ncn(C)n2)c1OC` [Compound 9PPP], the IC50 at TYK2 JH2 domain (Table 20, read-out: TYK2 IC50) fell in the range of 5 to 50 nM; against human JAK2 it was 50 to 500 nM.

`CCC(=O)c1cnc(Nc2ccc(S(=O)(=O)N(C)C)cn2)cc1Nc1cccc(-c2ncn(C)n2)c1OC` [Compound 13D]: the IC50 against human JAK1, against human JAK3 and at human JAK2 was at least 500 nM in each case.

As for `CCC(=O)c1cnc(Nc2cnc(O[C@@H]3CCN(CC)C3)cn2)cc1Nc1cccc(-c2ncn(C)n2)c1OC` [Compound 18DDD], the IC50 on TYK2 JH2 domain (Table 20, read-out: TYK2 IC50) was in the range of 5 to 50 nM.

As for `CCC(=O)c1cnc(Nc2cnc(C(F)(F)CN)cn2)cc1Nc1cccc(-c2ncn(C)n2)c1OC` [Compound 19A, 1-(6-((5-(2-amino-1,1-difluoroethyl)pyrazin-2-yl)amino)-4-((2-methoxy-3-(1-methyl-1H-1,2,4-triazol-3-yl)phenyl)amino)pyridin-3-yl)propan-1-one], at TYK2 JH2 domain (Table 20, read-out: TYK2 IC50), the IC50 lay within 5 to 50 nM.
